From patent US3974184A, “Microbial production of certain isoflavones” (Zaidan Hojin Biseibutsu Kagaku Kenkyu Kai, priority 1973, dated 1976)
“Also recorded” adds a separate entry of the source. Where two headings read alike, the source gives them in different places.

Tests used:
dopamin-β-hydroxylase = molecular target: T1, dopamin-β-hydroxylase (Bos taurus, UniProt P15101); experiment: Inhibition of dopamin-β-hydroxylase; type: biochemical; details: at 100 .nu./cc
T1 sequence (P15101 1-610): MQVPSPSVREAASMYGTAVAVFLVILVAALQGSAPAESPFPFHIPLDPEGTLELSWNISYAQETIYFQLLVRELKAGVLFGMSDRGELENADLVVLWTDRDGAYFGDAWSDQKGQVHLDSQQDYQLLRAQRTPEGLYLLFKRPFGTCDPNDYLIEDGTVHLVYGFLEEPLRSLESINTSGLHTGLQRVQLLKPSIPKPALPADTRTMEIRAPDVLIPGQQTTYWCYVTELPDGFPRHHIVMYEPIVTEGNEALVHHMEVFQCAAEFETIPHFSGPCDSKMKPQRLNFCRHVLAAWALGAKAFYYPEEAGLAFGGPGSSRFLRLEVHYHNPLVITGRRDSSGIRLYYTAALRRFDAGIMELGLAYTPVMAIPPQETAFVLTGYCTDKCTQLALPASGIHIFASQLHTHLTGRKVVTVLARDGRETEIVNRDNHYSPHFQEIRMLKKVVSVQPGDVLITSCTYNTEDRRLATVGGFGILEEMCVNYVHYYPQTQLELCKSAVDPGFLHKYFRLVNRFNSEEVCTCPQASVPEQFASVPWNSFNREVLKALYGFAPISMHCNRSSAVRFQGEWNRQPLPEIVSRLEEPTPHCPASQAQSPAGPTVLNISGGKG

[1] = tested on: spontaneously hypertensive rats; experiment: Blood pressure lowering action in spontaneously hypertensive rats; type: in vivo; details: for blood pressure lowering action: abdominal cavity; for blood pressure lowering: in words
From the text: The inventors also examined the blood pressure lowering action of the compounds (I), (II) and (III) by administering them in the abdominal cavity of spontaneously hypertensive rats.

Solubility = type: physicochemical
From the text: Now the extractive purification of the compounds (I), (II) and (III) will be described. […] These compounds are extracted from the culture filtrate under acidic conditions with butanol, butyl acetate, etc. or also from the fungus solid body (mycelium) with methanol, acetone, etc. The filtrate from the mycelial extract is concentrated by distillation under diminished pressure and the concentrated liquid, after having been adjusted to be acidic, is subjected to an extraction operation with butyl acetate or butanol. The thusly extracted liquid is mixed with the solution of butyl acetate or butanol separately extracted from the culture liquid, and then concentrated to dryness under diminished pressure.

fungi = experiment: Inhibiting action against growth of fungi; type: cell-based; details: at 100 .nu./cc
histidine decarboxylase = molecular target: T2, histidine decarboxylase (Homo sapiens, UniProt P19113); experiment: Inhibition of histidine decarboxylase (formation of histamine-2-14C); type: biochemical; details: for inhibiting action against histidine decarboxylase: in words; for IC50: read-out: concentration for 50% inhibition ratio of histidine decarboxylase (converted)
T2 sequence (P19113 1-662): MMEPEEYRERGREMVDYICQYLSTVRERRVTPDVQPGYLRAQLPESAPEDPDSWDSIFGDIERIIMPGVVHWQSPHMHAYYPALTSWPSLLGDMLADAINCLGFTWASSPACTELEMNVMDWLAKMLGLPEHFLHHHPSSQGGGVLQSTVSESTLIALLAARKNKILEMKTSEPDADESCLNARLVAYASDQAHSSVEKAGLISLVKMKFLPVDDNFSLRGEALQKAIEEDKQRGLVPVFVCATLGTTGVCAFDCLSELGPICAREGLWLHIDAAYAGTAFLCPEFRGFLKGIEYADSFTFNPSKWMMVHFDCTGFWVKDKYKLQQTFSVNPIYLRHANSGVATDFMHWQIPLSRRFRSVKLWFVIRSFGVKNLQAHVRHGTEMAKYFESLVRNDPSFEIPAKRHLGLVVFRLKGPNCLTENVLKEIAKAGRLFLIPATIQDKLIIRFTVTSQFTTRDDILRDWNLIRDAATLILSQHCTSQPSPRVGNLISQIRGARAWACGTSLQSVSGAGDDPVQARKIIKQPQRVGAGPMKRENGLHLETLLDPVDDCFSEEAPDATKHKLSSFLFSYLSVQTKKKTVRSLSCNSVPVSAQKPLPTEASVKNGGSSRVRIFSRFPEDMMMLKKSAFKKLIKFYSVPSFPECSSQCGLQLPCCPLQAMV
Experimental: This inhibition is measured in the following manner:
The reaction liquid is prepared from 2.5 × 10^-^4 mole of L-histidine-2-^14 C (1.0 × 10^5 cpm), 3.7 × 10^-^5 mole of pyridoxal phosphate, 0.1 cc of histidine decarboxylase (protein content, 1 mg/cc), 0.1 cc of 0.67 mole phosphate buffer solution (pH 6.8) and sample solution. To this mixture there is added distilled water until 1 cc total volume of reaction liquid is obtained. The thusly prepared reaction liquid is then allowed to react for 2 hours at 37° C. and the formed histamine-2-^14 C is adsorbed on ammonia type "Amberlite CG-50". After washing the "Amberlite CG-50" with water, the adsorbed histamine is eluted with 1 N aqueous ammonia and a quantity of elute is sampled to measure its radioactivity by use of a liquid scintillation counter. The thusly measured radioactivity tells the quantity of formed histamine, so that the inhibition against histidine decarboxylase can be determined.

rats = experiment: Toxicity in rats, administration into the abdominal cavity; type: in vivo; details: 200 mg./kg., abdominal cavity of rats, 25% aqueous dimethyl sulfoxide
From the text: Now the compounds (I), (II) and (III) will be described with respect to their biological properties.

tyrosine hydroxylase = experiment: Inhibition of tyrosine hydroxylase; type: biochemical; details: at 100 .nu./cc

For COc1ccc(-c2coc3c(OC)c(O)cc(O)c3c2=O)cc1O [Compound (II), 3',5,7-trihydroxy-4',8-dimethoxy-isoflavone], the “inhibiting action against dopamin-β-hydroxylase” value (dopamin-β-hydroxylase) was “no inhibiting action”, the “blood pressure lowering action” value ([1]; 3.1 mg./kg., after 1 hour) was 21.0% and the “blood pressure lowering action” value ([1]; 3.1 mg./kg., after 3 hours) was 26.3%. For the same compound, the “blood pressure lowering action” value ([1]; 3.1 mg./kg., after 6 hours) was 28.0%, the “blood pressure lowering action” value ([1]; 3.1 mg./kg., after 24 hours) was 22.0% and the “blood pressure lowering action” value ([1]; 3.1 mg./kg., after 48 hours) was 13.4%. For the same compound, the “blood pressure lowering action” value ([1]; 12.5 mg./kg., after 1 hour) was 10.4%, the “blood pressure lowering action” value ([1]; 12.5 mg./kg., after 3 hours) was 34.4% and the “blood pressure lowering action” value ([1]; 12.5 mg./kg., after 6 hours) was 32.8%. The “blood pressure lowering action” value ([1]; 12.5 mg./kg., after 24 hours) was 18.0%, the “blood pressure lowering action” value ([1]; 12.5 mg./kg., after 48 hours) was 18.0% and the “blood pressure lowering action” value ([1]; 50 mg./kg., after 1 hour) was 22.3%. For the same compound, the “blood pressure lowering action” value ([1]; 50 mg./kg., after 3 hours) was 35.9%, the “blood pressure lowering action” value ([1]; 50 mg./kg., after 6 hours) was 35.3% and the “blood pressure lowering action” value ([1]; 50 mg./kg., after 24 hours) was 23.9%. The “blood pressure lowering action” value ([1]; 50 mg./kg., after 48 hours) was 16.3%, the blood pressure lowering [1] was “lowered the blood pressure” and the “solubility in alkaline water, methanol, ethanol and acetone” value (shortened to “solubility in alkaline water, methanol”) (Solubility) was “soluble”. For the same compound, the “solubility in butanol, ethyl acetate and butyl acetate” value (from here on “solubility in butanol”) (Solubility) was “slightly soluble”, the “inhibiting action against the growth of fungi” value (“inhibiting action … of fungi” below) (fungi) was “no inhibiting action” and the “inhibiting action against histidine decarboxylase” value (histidine decarboxylase) was “inhibit; also recorded: inhibiting action”. For the same compound, the IC50 (histidine decarboxylase; printed in parentheses) was 4.5 µM, the IC50 (histidine decarboxylase) was 4.54 µM and the toxicity (rats) was “no toxicity”. The “inhibiting action against tyrosine hydroxylase” value (tyrosine hydroxylase) was “no inhibiting action”.
With COc1ccc(-c2coc3c(OC)c(O)c(OC)cc3c2=O)cc1O [Compound (III), 3',7-dihydroxy-4',6,8-trimethoxy-isoflavone] the “inhibiting action against dopamin-β-hydroxylase” value (dopamin-β-hydroxylase) was “no inhibiting action”, the “blood pressure lowering action” value ([1]; 50 mg./kg., after 1 hour) was 11.9% and the “blood pressure lowering action” value ([1]; 50 mg./kg., after 3 hours) was 13.0%. For the same compound, the “blood pressure lowering action” value ([1]; 50 mg./kg., after 6 hours) was 17.3%, the “blood pressure lowering action” value ([1]; 50 mg./kg., after 24 hours) was 7.0% and the “blood pressure lowering action” value ([1]; 50 mg./kg., after 48 hours) was 3.0%. The blood pressure lowering [1] was “lowered the blood pressure”, the “solubility in alkaline water, methanol” value (Solubility) was “soluble” and the “solubility in butanol” value (Solubility) was “slightly soluble”. The “inhibiting action … of fungi” value (fungi) was “no inhibiting action”, the inhibition at 100 µg/mL (histidine decarboxylase; 2 h, at 100 .nu./cc, read-out: inhibition ratio against histidine decarboxylase) was roughly 31.9% and the “inhibiting action against histidine decarboxylase” value (histidine decarboxylase) was “inhibiting action”. For the same compound, the toxicity (rats) was “no toxicity” and the “inhibiting action against tyrosine hydroxylase” value (tyrosine hydroxylase) was “no inhibiting action”.
In the case of COc1ccc(-c2coc3cc(O)c(OC)c(O)c3c2=O)cc1O [Compound (I), 3',5,7-trihydroxy-4',6-dimethoxy-isoflavone], the “inhibiting action against dopamin-β-hydroxylase” value (dopamin-β-hydroxylase) was “no inhibiting action”, the “blood pressure lowering action” value ([1]; 12.5 mg./kg., after 1 hour) was 13.6% and the “blood pressure lowering action” value ([1]; 12.5 mg./kg., after 3 hours) was 10.7%. For the same compound, the “blood pressure lowering action” value ([1]; 12.5 mg./kg., after 6 hours) was 15.8%, the “blood pressure lowering action” value ([1]; 12.5 mg./kg., after 24 hours) was 7.8% and the “blood pressure lowering action” value ([1]; 50 mg./kg., after 1 hour) was 20.8%. The “blood pressure lowering action” value ([1]; 50 mg./kg., after 3 hours) was 16.4%, the “blood pressure lowering action” value ([1]; 50 mg./kg., after 6 hours) was 35.0% and the “blood pressure lowering action” value ([1]; 50 mg./kg., after 24 hours) was 3.8%. The blood pressure lowering [1] was “lowered the blood pressure”, the “solubility in alkaline water, methanol” value (Solubility) was “soluble” and the “solubility in butanol” value (Solubility) was “slightly soluble”. The “inhibiting action … of fungi” value (fungi) was “no inhibiting action”, the “inhibiting action against histidine decarboxylase” value (histidine decarboxylase) was “inhibit; also recorded: inhibiting action” and the IC50 (histidine decarboxylase; printed in parentheses) was 18 µM. For the same compound, the IC50 (histidine decarboxylase) was 18.2 µM, the toxicity (rats) was “no toxicity” and the “inhibiting action against tyrosine hydroxylase” value (tyrosine hydroxylase) was “no inhibiting action”.
